Patent publication US11578062B2, “Solid forms of (R)-1(2,2-difluorobenzo[d][1,3]dioxol-5-yl)-N-(1-(2,3-dihydroxypropyl)-6-fluoro-2-(1-hydroxy-2-methylpropan-2-yl)-1H-indol-5-yl)cyclopropanecarboxamide” (Vertex Pharmaceuticals Incorporated, priority 2010, dated 2023)

Biological target: T1, ΔF508-CFTR (Homo sapiens, UniProt P13569, DEL508-508)
T1 construct: expressed in transfected cells
Experiment: Membrane potential optical assay for ΔF508-CFTR correction (FRET voltage-sensor dyes, VIPR)
Type: cell-based
Settings: PercentActivity; NIH3T3 mouse fibroblasts stably expressing ΔF508-CFTR; procedures described above
Excerpt: Assays for Detecting and Measuring ΔF508-CFTR Correction Properties of Compounds
Membrane potential optical methods for assaying ΔF508-CFTR modulation properties of compounds
The optical membrane potential assay utilized voltage-sensitive FRET sensors described by Gonzalez and Tsien (See, Gonzalez, J. E. and R. Y. Tsien (1995) “Voltage sensing by fluorescence resonance energy transfer in single cells” Biophys J 69(4): 1272-80, and Gonzalez, J. E. and R. Y. Tsien (1997) “Improved indicators of cell membrane potential that use fluorescence resonance energy transfer” Chem Biol 4(4): 269-77) in combination with instrumentation for measuring fluorescence changes such as the Voltage/Ion Probe Reader (VIPR) (See, Gonzalez, J. E., K. Oades, et al. (1999) “Cell-based assays and instrumentation for screening ion-channel targets” Drug Discov Today 4(9): 431-439).
These voltage sensitive assays are based on the change in fluorescence resonant energy transfer (FRET) between the membrane-soluble, voltage-sensitive dye, DiSBAC2(3), and a fluorescent phospholipid, CC2-DMPE, which is attached to the outer leaflet of the plasma membrane and acts as a FRET donor. […] The changes in fluorescence emission were monitored using VIPR™ II, which is an integrated liquid handler and fluorescent detector designed to conduct cell-based screens in 96- or 384-well microtiter plates. […]

T1 sequence (P13569 with tags, fused parts or gaps DEL508-508): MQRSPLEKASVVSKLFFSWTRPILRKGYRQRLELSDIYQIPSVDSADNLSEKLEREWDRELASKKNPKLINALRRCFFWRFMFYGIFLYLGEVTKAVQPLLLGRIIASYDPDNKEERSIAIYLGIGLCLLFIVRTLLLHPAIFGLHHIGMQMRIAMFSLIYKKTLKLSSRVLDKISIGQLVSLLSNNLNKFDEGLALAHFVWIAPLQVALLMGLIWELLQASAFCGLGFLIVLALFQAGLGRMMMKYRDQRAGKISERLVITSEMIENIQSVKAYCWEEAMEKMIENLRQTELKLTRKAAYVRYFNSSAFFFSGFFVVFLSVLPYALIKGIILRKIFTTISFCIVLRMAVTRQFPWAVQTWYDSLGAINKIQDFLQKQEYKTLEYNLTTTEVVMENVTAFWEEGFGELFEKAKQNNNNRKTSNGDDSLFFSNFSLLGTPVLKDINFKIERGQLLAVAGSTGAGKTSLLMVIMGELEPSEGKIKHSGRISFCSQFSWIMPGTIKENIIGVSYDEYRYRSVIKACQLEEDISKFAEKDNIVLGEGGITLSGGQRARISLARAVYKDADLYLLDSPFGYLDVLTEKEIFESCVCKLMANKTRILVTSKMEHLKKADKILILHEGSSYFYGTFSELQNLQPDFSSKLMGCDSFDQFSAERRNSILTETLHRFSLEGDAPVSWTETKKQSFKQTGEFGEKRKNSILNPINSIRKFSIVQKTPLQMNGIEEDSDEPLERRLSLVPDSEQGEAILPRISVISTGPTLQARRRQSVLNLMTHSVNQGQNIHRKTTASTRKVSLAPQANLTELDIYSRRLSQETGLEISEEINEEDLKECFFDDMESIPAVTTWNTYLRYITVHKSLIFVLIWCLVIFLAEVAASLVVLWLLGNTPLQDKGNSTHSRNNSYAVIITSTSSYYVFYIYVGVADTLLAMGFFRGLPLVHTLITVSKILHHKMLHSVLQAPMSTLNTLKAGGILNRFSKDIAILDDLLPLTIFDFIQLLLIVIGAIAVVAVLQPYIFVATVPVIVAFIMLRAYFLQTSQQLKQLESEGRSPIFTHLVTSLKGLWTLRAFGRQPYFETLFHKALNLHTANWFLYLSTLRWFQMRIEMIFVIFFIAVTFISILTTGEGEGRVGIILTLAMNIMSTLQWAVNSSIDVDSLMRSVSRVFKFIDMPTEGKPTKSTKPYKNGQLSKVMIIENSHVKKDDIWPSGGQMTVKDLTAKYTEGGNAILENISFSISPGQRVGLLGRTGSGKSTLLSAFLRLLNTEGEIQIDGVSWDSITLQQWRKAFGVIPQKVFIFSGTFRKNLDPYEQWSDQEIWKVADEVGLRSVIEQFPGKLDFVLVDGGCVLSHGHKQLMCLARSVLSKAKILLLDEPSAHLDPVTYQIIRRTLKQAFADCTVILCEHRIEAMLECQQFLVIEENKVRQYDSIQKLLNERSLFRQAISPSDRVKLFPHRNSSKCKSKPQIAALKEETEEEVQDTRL

Compound: CC(C)(CO)c1cc2cc(NC(=O)C3(c4ccc5c(c4)OC(F)(F)O5)CC3)c(F)cc2n1C[C@@H](O)CO [Compound 1, (R)-1-(2,2-difluorobenzo[d][1,3]dioxol-5-yl)-N-(1-(2,3-dihydroxypropyl)-6-fluoro-2-(1-hydroxy-2-methylpropan-2-yl)-1H-indol-5-yl)cyclopropanecarboxamide]
- BinnedMaxEfficacy: +++ (PercentActivity Bins: + <= 25.0 < ++ <= 100.0 < +++)
